Measurements reported in publication PMC8269116 (Journal of psychopharmacology (Oxford, England), 2019).
“And” between values parts separate entries of the source, which are not always exact repeats. Identical values can stand only once. Like-named read-outs stand apart in the source and are kept apart here.

How the values were obtained:
[1] = molecular target: human 5-HT transporter (SERT) (Homo sapiens, UniProt P31645); assay: [3H]5-HT uptake inhibition in HEK 293 cells overexpressing human SERT; assay type: cell-based
Sequence of human 5-HT transporter (SERT) (P31645 whole entry): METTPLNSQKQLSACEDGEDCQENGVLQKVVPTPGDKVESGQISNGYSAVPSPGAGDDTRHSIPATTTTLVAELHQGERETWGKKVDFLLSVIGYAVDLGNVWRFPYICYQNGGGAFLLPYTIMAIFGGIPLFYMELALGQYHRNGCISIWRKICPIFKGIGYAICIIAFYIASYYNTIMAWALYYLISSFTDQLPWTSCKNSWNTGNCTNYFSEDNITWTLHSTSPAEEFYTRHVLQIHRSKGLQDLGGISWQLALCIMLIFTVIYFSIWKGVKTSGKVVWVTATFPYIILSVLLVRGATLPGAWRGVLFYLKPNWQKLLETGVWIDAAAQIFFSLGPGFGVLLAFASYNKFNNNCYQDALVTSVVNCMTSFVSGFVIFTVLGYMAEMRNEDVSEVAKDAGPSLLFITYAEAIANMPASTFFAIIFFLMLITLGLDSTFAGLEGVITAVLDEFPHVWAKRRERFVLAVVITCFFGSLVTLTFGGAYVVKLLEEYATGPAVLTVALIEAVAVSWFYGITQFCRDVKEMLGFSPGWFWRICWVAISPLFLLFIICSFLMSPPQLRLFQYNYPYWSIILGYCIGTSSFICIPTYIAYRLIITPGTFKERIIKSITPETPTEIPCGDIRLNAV

NET [2] = molecular target: T1, NET (Homo sapiens, UniProt P23975); assay: Radioligand binding, N-methyl-[3H]nisoxetine displacement
T1 sequence (P23975 whole entry): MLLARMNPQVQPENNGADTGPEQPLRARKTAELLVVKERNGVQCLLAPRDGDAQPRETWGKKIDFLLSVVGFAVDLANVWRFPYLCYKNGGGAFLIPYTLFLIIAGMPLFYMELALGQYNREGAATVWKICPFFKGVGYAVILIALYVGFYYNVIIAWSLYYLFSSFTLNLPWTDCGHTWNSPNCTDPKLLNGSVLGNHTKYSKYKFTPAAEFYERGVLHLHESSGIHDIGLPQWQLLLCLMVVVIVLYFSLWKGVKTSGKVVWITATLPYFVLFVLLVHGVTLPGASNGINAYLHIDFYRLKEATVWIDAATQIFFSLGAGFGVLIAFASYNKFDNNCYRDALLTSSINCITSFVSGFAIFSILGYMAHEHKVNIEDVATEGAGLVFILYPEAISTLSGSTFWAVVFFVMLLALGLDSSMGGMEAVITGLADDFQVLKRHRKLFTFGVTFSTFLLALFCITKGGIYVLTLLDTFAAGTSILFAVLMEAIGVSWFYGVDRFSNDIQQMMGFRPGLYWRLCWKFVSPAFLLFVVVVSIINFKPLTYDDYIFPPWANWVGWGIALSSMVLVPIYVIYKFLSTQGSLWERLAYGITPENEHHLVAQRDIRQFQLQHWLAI

DAT [3] = molecular target: T2, DAT (Homo sapiens, UniProt Q01959); assay: Radioligand binding, [3H]WIN35,428 displacement
T2 sequence (Q01959 whole entry): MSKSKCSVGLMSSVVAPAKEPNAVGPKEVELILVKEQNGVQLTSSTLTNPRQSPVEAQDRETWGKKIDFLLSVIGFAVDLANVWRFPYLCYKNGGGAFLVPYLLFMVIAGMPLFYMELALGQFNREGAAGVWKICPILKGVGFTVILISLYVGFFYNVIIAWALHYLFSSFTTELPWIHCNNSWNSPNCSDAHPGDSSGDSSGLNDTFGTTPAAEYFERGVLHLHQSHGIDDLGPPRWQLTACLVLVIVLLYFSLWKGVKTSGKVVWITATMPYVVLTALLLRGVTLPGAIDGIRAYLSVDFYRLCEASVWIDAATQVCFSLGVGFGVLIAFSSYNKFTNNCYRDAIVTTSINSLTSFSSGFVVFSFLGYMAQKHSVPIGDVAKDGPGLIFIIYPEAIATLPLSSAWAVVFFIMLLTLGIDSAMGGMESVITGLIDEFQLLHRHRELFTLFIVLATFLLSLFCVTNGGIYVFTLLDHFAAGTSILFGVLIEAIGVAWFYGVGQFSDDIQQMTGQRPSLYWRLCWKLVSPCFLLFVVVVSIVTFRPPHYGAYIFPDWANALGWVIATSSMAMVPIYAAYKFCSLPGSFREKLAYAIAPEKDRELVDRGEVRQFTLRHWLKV

SERT = SERT (Homo sapiens, UniProt P31645); assay: Radioligand binding, [3H]citalopram displacement
Sequence of SERT (P31645 whole entry): as the sequence (P31645 whole entry) above

dopamine D2 receptors = dopamine D2 receptors (Homo sapiens, UniProt P14416); assay: Radioligand binding, [3H]spiperone displacement
Sequence of dopamine D2 receptors (P14416 whole entry): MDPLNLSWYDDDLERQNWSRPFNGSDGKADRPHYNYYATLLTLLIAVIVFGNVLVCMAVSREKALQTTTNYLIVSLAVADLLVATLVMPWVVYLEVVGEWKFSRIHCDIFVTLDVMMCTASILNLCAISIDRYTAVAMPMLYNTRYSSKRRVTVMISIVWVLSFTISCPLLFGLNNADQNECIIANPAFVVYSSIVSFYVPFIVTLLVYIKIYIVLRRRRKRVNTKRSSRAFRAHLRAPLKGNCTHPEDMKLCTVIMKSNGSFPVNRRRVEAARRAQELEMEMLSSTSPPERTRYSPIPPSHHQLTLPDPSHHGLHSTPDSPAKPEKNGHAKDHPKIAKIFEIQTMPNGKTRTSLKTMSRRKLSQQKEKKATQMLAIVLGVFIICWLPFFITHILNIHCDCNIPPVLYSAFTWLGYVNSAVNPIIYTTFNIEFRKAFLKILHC

[4] = molecular target: T3, α1 adrenergic receptor (α1A) (Homo sapiens, UniProt P35348); assay: Radioligand binding, [3H]prazosin displacement
T3 sequence (P35348 1-466): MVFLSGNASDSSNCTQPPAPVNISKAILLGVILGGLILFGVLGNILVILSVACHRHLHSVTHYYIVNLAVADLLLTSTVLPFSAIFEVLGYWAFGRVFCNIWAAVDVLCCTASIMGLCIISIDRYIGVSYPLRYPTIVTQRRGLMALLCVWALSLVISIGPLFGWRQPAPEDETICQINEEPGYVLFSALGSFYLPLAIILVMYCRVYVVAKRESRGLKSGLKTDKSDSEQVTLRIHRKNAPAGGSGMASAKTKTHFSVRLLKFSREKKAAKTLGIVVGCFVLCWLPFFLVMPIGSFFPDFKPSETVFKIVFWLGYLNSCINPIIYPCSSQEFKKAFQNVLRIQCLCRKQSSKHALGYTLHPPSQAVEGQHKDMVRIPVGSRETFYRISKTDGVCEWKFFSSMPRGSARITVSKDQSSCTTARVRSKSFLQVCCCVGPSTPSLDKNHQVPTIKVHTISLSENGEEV

[5] = molecular target: T4, α2 adrenergic receptor (α2A) (Homo sapiens, UniProt P08913); assay: Radioligand binding, [3H]rauwolscine displacement
T4 sequence (P08913 1-465): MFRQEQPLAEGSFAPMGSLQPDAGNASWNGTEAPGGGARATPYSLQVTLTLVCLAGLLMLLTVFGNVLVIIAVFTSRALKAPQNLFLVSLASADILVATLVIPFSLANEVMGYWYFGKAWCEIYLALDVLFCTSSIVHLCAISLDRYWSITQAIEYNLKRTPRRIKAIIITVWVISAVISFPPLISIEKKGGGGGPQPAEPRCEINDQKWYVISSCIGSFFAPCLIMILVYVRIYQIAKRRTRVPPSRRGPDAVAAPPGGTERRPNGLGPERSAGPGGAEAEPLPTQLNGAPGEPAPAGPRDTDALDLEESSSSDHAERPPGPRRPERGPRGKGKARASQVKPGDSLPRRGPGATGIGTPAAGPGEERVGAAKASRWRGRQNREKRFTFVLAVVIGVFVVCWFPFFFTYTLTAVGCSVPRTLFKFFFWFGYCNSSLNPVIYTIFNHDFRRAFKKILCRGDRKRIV

5-HT1A receptor = molecular target: T5, 5-HT1A receptor (Homo sapiens, UniProt P08908); assay: Radioligand binding, [3H]8-hydroxy-2-
T5 sequence (P08908 1-422): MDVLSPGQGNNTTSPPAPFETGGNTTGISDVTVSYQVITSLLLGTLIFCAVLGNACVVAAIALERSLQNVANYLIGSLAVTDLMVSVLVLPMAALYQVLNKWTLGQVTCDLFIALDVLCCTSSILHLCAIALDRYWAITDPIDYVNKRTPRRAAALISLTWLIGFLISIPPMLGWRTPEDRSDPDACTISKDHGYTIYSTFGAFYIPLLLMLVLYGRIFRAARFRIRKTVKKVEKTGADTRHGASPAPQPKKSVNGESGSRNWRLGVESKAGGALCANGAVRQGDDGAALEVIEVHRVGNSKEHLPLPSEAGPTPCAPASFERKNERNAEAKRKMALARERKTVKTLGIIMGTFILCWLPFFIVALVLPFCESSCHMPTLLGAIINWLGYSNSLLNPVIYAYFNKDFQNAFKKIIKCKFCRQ

5-HT2A receptor = 5-HT2A receptor (Homo sapiens, UniProt P28223); assay: Radioligand binding, [3H]ketanserin displacement
Sequence of 5-HT2A receptor (P28223 whole entry): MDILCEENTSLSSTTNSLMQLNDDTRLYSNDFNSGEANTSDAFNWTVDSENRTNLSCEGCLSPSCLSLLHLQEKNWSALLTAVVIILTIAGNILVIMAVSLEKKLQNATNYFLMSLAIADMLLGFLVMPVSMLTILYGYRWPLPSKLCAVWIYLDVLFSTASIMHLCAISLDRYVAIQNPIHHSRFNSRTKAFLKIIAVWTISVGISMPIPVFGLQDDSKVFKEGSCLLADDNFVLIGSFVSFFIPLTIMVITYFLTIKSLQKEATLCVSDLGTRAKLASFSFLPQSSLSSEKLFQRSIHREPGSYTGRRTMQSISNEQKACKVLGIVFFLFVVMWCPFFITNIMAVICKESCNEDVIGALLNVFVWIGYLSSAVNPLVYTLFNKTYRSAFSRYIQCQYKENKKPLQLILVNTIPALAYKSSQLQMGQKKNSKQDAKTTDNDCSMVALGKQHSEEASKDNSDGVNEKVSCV

5-HT2C receptor = molecular target: T6, 5-HT2C receptor (Homo sapiens, UniProt P28335); assay: biochemical; assay type: binding
T6 sequence (P28335 33-458): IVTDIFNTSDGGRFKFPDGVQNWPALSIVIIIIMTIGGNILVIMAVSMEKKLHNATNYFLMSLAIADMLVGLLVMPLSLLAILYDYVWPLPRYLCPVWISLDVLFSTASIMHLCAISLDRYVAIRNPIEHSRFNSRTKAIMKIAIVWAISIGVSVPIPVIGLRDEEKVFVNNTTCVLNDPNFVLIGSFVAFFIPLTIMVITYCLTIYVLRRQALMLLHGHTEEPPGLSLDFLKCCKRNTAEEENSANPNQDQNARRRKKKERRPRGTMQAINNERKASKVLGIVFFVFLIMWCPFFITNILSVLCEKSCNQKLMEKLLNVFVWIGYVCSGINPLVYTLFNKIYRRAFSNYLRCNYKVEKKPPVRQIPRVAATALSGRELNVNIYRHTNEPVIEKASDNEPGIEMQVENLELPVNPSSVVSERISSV

rat TAAR1 = rat TAAR1 (Rattus norvegicus, UniProt Q923Y9); assay: Radioligand binding, [3H]RO5166017 displacement
Sequence of rat TAAR1 (Q923Y9 whole entry): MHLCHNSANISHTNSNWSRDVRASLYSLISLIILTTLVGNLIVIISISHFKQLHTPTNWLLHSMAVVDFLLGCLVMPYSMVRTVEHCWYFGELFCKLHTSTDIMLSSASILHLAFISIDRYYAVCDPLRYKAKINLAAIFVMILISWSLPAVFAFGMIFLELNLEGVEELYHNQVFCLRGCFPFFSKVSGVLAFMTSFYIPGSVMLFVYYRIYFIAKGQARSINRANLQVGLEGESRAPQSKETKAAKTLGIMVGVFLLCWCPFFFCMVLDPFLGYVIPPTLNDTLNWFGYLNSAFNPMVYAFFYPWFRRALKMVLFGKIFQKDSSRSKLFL

mouse TAAR1 = mouse TAAR1 (Mus musculus, UniProt Q923Y8); assay: Radioligand binding, [3H]RO5166017 displacement
Sequence of mouse TAAR1 (Q923Y8 whole entry): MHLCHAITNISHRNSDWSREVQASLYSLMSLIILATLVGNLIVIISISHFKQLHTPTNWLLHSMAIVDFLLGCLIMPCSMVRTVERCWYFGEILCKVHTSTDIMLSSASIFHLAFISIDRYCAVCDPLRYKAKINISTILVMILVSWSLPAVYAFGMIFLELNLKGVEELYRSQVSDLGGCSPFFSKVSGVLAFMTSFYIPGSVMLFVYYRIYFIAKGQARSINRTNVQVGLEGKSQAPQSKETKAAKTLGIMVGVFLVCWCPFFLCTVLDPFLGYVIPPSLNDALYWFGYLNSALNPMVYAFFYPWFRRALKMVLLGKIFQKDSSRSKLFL

[6] = rats, ref Anizan et al., 2016, cited from earlier work; for maximal concentration as % of the parent compound MDPV: subcutaneous 0.5–2 mg/kg MDPV; for Tmax: subcutaneous injections of 0.5–2 mg/kg MDPV
DAT [7] = molecular target: T2, DAT; assay: [3H]dopamine uptake inhibition in HEK 293 cells overexpressing human DAT; assay type: cell-based; settings: for increase of dopamine uptake: anomalous increase at some concentrations, non-sigmoidal curves; for DAT/SERT ratio: 1/DAT IC50 : 1/SERT IC50, mean and 95% confidence interval
[8] = rat plasma, ref Elmore et al., 2017, cited from earlier work; for amount in plasma as % of parent compound methylone: subcutaneous injections of methylone; for time at which Cmax was reached: subcutaneous methylone
NET [9] = molecular target: T1, NET; assay: [3H]norepinephrine uptake inhibition in HEK 293 cells overexpressing human NET; assay type: cell-based
[10] = after subcutaneous methylone, ref Stefkova et al., 2017, cited from earlier work
[11] = healthy human subjects, oral MDMA; ref Schmid et al., 2016; cited from earlier work
[12] = read-out: SERT IC50, 5-HT uptake inhibition, mean and 95% confidence interval
[13] = read-out: SERT Ki, mean±SD, n=3
[14] = read-out: 5-HT1A Ki, mean±SD, n=3
[15] = read-out: 5-HT2A Ki, mean±SD, n=3
[16] = read-out: 5-HT2c Ki, mean±SD, n=3
[17] = read-out: TAAR1rat Ki, mean±SD, n=3
[18] = read-out: TAAR1mouse Ki, mean±SD, n=3

Structure (SMILES)	IC50 [1, 12]	Ki (NET [2]; read-out: NET Ki, mean±SD, n=3)	Ki (DAT [3]; read-out: DAT Ki, mean±SD, n=3)	Ki (SERT; [13])	Ki (dopamine D2 receptors; read-out: D2 Ki, mean±SD, n=3)	Ki ([4]; read-out: α1A Ki, mean±SD, n=3)	Ki ([5]; read-out: α2A Ki, mean±SD, n=3)	Ki (5-HT1A receptor; [14])	Ki (5-HT2A receptor; [15])	Ki (5-HT2C receptor; [16])	Ki (rat TAAR1; [17])	Ki (mouse TAAR1; [18])	Tmax [6]	amount in plasma as % of parent compound methylone [8]	time at which Cmax was reached [8]	increase of dopamine uptake (DAT [7])	DAT/SERT ratio (DAT [7])	further results
CCCC(C(=O)c1ccc(O)c(O)c1)N1CCCC1 (stereo not drawn) [HHPV, 3,4-dihydroxypyrovalerone]	> 100 µM	0.11 ± 0.01 µM	0.02 µM and 0.023 µM	> 7.4 µM	> 13 µM	> 9.5 µM	> 4.7 µM	4.3 ± 1.6 µM	> 12 µM	> 5.1 µM	> 5.2 µM	> 4.4 µM	3.43 to 4.28 h					maximal concentration as % of the parent compound MDPV [6]: 12–19%
CNC(C)C(=O)c1ccc(O)c(OC)c1 (stereo not drawn) [HMMC, 4-hydroxy-3-methyoxymethcathinone]	> 100 µM	4 µM and 4.2 µM	> 8.5 µM	> 7.4 µM	> 13 µM	> 9.5 µM	> 4.7 µM	> 18 µM	> 12 µM	> 5.1 µM	> 5.2 µM	> 4.4 µM		12–22%	90 to 120 min			maximum dopamine transporter inhibition (DAT [7]; partial inhibition of dopamine uptake): 26%
CNC(C)Cc1ccc2c(c1)OCO2 (stereo not drawn) [MDMA, 3,4-Methylenedioxymethamphetmine, reference compound]																		IC50 (NET [9]): 0.38 µM; IC50 (DAT [7]): 21 µM; IC50 [1]: 2.5 µM; Ki (NET [2]): > 8.7 µM; Ki (DAT [3]): > 8.5 µM; Ki (SERT): > 7.5 µM; Ki (dopamine D2 receptors): > 13 µM; Ki (5-HT2A receptor): 4.6 ± 1.1 µM; Ki (rat TAAR1): 0.25 ± 0.01 µM; Ki (mouse TAAR1): 3.1 ± 0.7 µM
CNC(C)Cc1ccc(O)c(O)c1 (stereo not drawn) [HHMA, 3,4-dihydroxymethamphetamine]	65 µM	0.94 ± 0.14 µM	1.9 µM	> 7.4 µM	> 13 µM	> 9.5 µM	1.3 ± 0.1 µM	> 18 µM	> 12 µM	> 5.1 µM	3 ± 0.3 µM	> 4.4 µM				more than 200%		
CC(N)C(=O)c1ccc2c(c1)OCO2 (stereo not drawn) [MDC, 3,4-methylenedioxycathinone]	13 µM	> 8.8 µM	> 8.5 µM	> 7.4 µM	> 13 µM	> 9.5 µM	> 4.7 µM	> 17 µM	> 12 µM	> 5.1 µM		3.5 ± 0.3 µM		10–13%	30 to 45 min		0.38 (0.24–0.59)	delay of serum peak relative to methylone [10]: 30 min; serum level as % of the methylone levels ([10]; peak): about 20%
CNC(C)Cc1ccc(O)c(OC)c1 (stereo not drawn) [HMMA, 4-hydroxy-3-methoxymethamphetamine]	20 µM	> 8.8 µM	> 8.5 µM	> 7.4 µM	> 13 µM	> 9.5 µM	> 4.7 µM	> 18 µM	> 12 µM	> 5.1 µM	0.25 ± 0.04 µM	0.45 ± 0.05 µM					3.6 (1.4–8.9)	Cmax as % of the Cmax of MDMA [11]: 9–48%; Cmax of unconjugated form as % of the Cmax of MDMA [11]: 1–3%
CCCC(C(=O)c1ccc(O)c(OC)c1)N1CCCC1 (stereo not drawn) [HMPV, 4-hydroxy-3-methyoxypyrovalerone]	> 100 µM	6.2 ± 0.7 µM	2 ± 0.2 µM	> 7.4 µM	> 13 µM	> 9.5 µM	> 4.7 µM	> 17 µM	> 12 µM	> 5.1 µM	> 5.2 µM	> 4.4 µM	3.15 to 3.43 h					maximal concentration as % of the parent compound MDPV [6]: 53–61%
CC(N)Cc1ccc(O)c(O)c1 (stereo not drawn) [HHA, 3,4-Dihydroxyamphetamine]																more than 200%		IC50 (NET [9]): 0.18 µM; IC50 (DAT [7]): 9.6 µM; IC50 [1]: 63 µM; Ki (NET [2]): 0.79 ± 0.3 µM; Ki (DAT [3]): 2.9 ± 0.3 µM; Ki (SERT): > 7.4 µM; Ki (dopamine D2 receptors): > 13 µM; Ki [4]: > 9.5 µM; Ki [5]: 2 ± 0.4 µM; Ki (5-HT1A receptor): > 18 µM; Ki (5-HT2A receptor): 9.2 ± 1.7 µM; Ki (5-HT2C receptor): > 5.1 µM; Ki (rat TAAR1): 1.9 ± 0.4 µM; Ki (mouse TAAR1): 1.4 ± 0.2 µM
CCCC(C(=O)c1ccc2c(c1)OCO2)N1CCCC1 (stereo not drawn) [MDPV, 3,4-methylenedioxypyrovalerone, reference compound]	12 µM	0.1 ± 0.01 µM	0.01 µM and 0.011 µM	2.2 ± 0.1 µM	> 13 µM	> 9.5 µM	> 5 µM	12 ± 2 µM	> 12 µM	2 µM and 2.1 µM	> 5 µM	> 4.7 µM	0.217 to 0.317 h				226 (143–350)	
CNC(C)C(=O)c1ccc(O)c(O)c1 (stereo not drawn) [HHMC, 3,4-Dihydroxymethcathinone]	> 100 µM	4 ± 1 µM	7.1 ± 0.3 µM	> 7.4 µM	> 13 µM	> 9.5 µM	> 4.7 µM	> 18 µM	> 12 µM	> 5.1 µM	2.2 ± 0.1 µM	> 4.4 µM		10–13%	60 to 70 min	more than 200%		
